Results: patent US20100227859A1, “TRICYCLIC COMPOUNDS AS MATRIX METALLOPROTEINASE INHIBITORS” (priority 2007, published 2010)

The compounds below were run against purified human MMP-12 enzyme (Homo sapiens, UniProt P39900) (assay: MMP-12 FRET assay). Settings: substrate 20 μM, room temperature.
Sequence of purified human MMP-12 enzyme (P39900 106-470): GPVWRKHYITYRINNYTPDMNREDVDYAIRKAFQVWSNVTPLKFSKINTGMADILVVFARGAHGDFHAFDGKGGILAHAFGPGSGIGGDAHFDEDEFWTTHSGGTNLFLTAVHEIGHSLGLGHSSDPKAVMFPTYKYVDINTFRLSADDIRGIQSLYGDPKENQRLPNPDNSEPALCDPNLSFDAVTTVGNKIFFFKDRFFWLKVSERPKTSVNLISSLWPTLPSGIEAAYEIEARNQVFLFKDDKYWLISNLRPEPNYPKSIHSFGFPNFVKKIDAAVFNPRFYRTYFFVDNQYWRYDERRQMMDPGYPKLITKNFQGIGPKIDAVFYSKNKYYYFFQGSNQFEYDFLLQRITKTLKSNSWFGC
Assay type: biochemical
Procedure, shortened: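 Enzyme pre-incubated 30 min at room temperature with compound in 50 mM HEPES pH 7.4, 100 mM NaCl, 5 mM CaCl2, 0.005% Brij-35, 10% DMSO final. Reaction started with 20 μM MCA-Pro-Leu-Gly-Leu-Dpa(DNP)-Ala-Arg, and initial cleavage rate read over 30 min (λex 325, λem 395 nm). IC50 from slope-factor inhibition fit.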
In the case of `COC#Cc1ccc2oc3cc(S(=O)(=O)N[C@H](C(=O)O)C(C)C)ccc3c2c1` [Compound 38, (S)-2-(8-(methoxyethynyl)dibenzo[b,d]furan-3-sulfonamido)-3-methylbutanoic acid], the IC50 is reported as < 1.5 nM. With `Cc1cscc1-c1ccc2c(c1)oc1ccc(S(=O)(=O)N[C@@H](C(=O)O)C(C)C)cc12` [Compound 99, (R)-3-methyl-2-(7-(4-methylthiophen-3-yl)dibenzo[b,d]furan-2-sulfonamido)butanoic acid] the IC50 was 12 nM. For `CC(C)[C@H](NS(=O)(=O)c1ccc2c(c1)oc1ccc(-c3noc(Cc4ccccc4)n3)cc12)C(=O)O` [Compound 266, (S)-2-(8-(5-benzyl-1,2,4-oxadiazol-3-yl)dibenzo[b,d]furan-3-sulfonamido)-3-methylbutanoic acid], the IC50 was 4 nM. `CC(C)[C@H](NS(=O)(=O)c1ccc2c(c1)oc1ccc(-c3ccc(Cl)nc3)cc12)C(=O)O` [Compound 64, (S)-2-(8-(6-chloropyridin-3-yl)dibenzo[b,d]furan-3-sulfonamido)-3-methylbutanoic acid] was tested, and the IC50 was < 1.5 nM. `CC(C)(NS(=O)(=O)c1ccc2oc3cc(-c4noc(C(C)(C)C)n4)ccc3c2c1)C(=O)O` [Compound 277, 2-(7-(5-tert-butyl-1,2,4-oxadiazol-3-yl)dibenzo[b,d]furan-2-sulfonamido)-2-methylpropanoic acid] was tested, and the IC50 was 130 nM. `Cc1nc(-c2cnc(-c3ccc4c(c3)oc3cc(S(=O)(=O)N[C@H](C(=O)O)C(C)C)ccc34)s2)no1` [Compound 228, (S)-3-methyl-2-(7-(5-(5-methyl-1,2,4-oxadiazol-3-yl)thiazol-2-yl)dibenzo[b,d]furan-3-sulfonamido)butanoic acid] was tested, and the IC50 was < 1.5 nM. `COCC#Cc1ccc2c(c1)sc1cc(S(=O)(=O)N[C@H](C(=O)O)C(C)C)ccc12` [Compound 65, (S)-2-(7-(3-methoxyprop-1-ynyl)dibenzo[b,d]thiophene-3-sulfonamido)-3-methylbutanoic acid] showed an IC50 of 4.6 nM. `CC(C)[C@H](NS(=O)(=O)c1ccc2c(c1)sc1ccc(-c3cc4ccccc4s3)cc12)C(=O)O` [Compound 46, (S)-2-(8-(benzo[b]thiophen-2-yl)dibenzo[b,d]thiophene-3-sulfonamido)-3-methylbutanoic acid] gave an IC50 of 289 nM. For `C#Cc1ccc2oc3cc(S(=O)(=O)N[C@H](C(=O)O)C(C)C)ccc3c2c1` [Compound 303, (S)-2-(8-ethynyldibenzo[b,d]furan-3-sulfonamido)-3-methylbutanoic acid], the IC50 was < 1.5 nM. Compound `CCN(C#Cc1ccc2oc3cc(S(=O)(=O)N[C@H](C(=O)O)C(C)C)ccc3c2c1)CC` [Compound 39, (S)-2-(8-((diethylamino)ethynyl)dibenzo[b,d]furan-3-sulfonamido)-3-methylbutanoic acid] has an IC50 of 39 nM. `Cc1cscc1-c1ccc2sc3cc(S(=O)(=O)N[C@H](C(=O)O)C(C)C)ccc3c2c1` [Compound 24, (S)-3-methyl-2-(8-(4-methylthiophen-3-yl)dibenzo[b,d]thiophene-3-sulfonamido)butanoic acid] gave an IC50 of 190 nM. `CC(C)[C@H](NS(=O)(=O)c1ccc2c(c1)oc1ccc(-c3ncc(CO)s3)cc12)C(=O)O` [Compound 215, (S)-2-(8-(5-(hydroxymethyl)thiazol-2-yl)dibenzo[b,d]furan-3-sulfonamido)-3-methylbutanoic acid] gave an IC50 of 2.4 nM. In the case of `CC(C)[C@H](NS(=O)(=O)c1ccc2c(c1)oc1ccc(-c3nc4ccccc4o3)cc12)C(=O)O` [Compound 194, (S)-2-(8-(benzo[d]oxazol-2-yl)dibenzo[b,d]furan-3-sulfonamido)-3-methylbutanoic acid], the IC50 is reported as 4.6 nM. `CC(C)[C@H](NS(=O)(=O)c1ccc2c(c1)sc1ccc(-c3cnn(C)c3)cc12)C(=O)O` [Compound 40, (S)-3-methyl-2-(8-(1-methyl-1H-pyrazol-4-yl)dibenzo[b,d]thiophene-3-sulfonamido)butanoic acid] gave an IC50 of 2.6 nM. `CC(C)[C@@H](NS(=O)(=O)c1ccc2oc3cc(-c4noc(C5CCC5)n4)ccc3c2c1)C(=O)O` [Compound 148, (R)-2-(7-(5-cyclobutyl-1,2,4-oxadiazol-3-yl)dibenzo[b,d]furan-2-sulfonamido)-3-methylbutanoic acid] was tested, and the IC50 was < 1.5 nM. Compound `CC(C)[C@H](NS(=O)(=O)c1ccc2c(c1)oc1ccc(-c3nc4c(F)c(F)c(F)cc4s3)cc12)C(=O)O` [Compound 222, (S)-3-methyl-2-(8-(4,5,6-trifluorobenzo[d]thiazol-2-yl)dibenzo[b,d]furan-3-sulfonamido)butanoic acid] has an IC50 of 4.9 nM. With `CC(C)[C@@H](NS(=O)(=O)c1ccc2oc3cc(-c4nc5ccccc5s4)ccc3c2c1)C(=O)O` [Compound 293, (R)-2-(7-(benzo[d]thiazol-2-yl)dibenzo[b,d]furan-2-sulfonamido)-3-methylbutanoic acid] the IC50 was 21 nM. With `CC(C)[C@H](NS(=O)(=O)c1ccc2c(c1)oc1cc(-c3sc(Cl)cc3Cl)ccc12)C(=O)O` [Compound 85, (S)-2-(7-(3,5-dichlorothiophen-2-yl)dibenzo[b,d]furan-3-sulfonamido)-3-methylbutanoic acid] the IC50 was < 1.5 nM. In the case of `CC(C)[C@@H](NS(=O)(=O)c1ccc2oc3cc(-c4cccs4)ccc3c2c1)C(=O)O` [Compound 118, (R)-3-methyl-2-(7-(thiophen-2-yl)dibenzo[b,d]furan-2-sulfonamido)butanoic acid], the IC50 is reported as 0.6 nM. `CC(C)[C@H](NS(=O)(=O)c1ccc2c(c1)oc1ccc(-c3ccc(C(C)N(C)C)s3)cc12)C(=O)O` (stereo partly drawn) [Compound 50, (S)-2-(8-(5-(1-(dimethylamino)ethyl)thiophen-2-yl)dibenzo[b,d]furan-3-sulfonamido)-3-methylbutanoic acid] gave an IC50 of 5.7 nM. In the case of `CC(C)[C@H](NS(=O)(=O)c1ccc2c(c1)oc1cc(-c3ccc(C(C)(C)C)o3)ccc12)C(=O)O` [Compound 231, (S)-2-(7-(5-tert-butylfuran-2-yl)dibenzo[b,d]furan-3-sulfonamido)-3-methylbutanoic acid], the IC50 is reported as 3.4 nM. In the case of `Cc1nc(-c2ccc(-c3ccc4oc5cc(S(=O)(=O)N[C@H](C(=O)O)C(C)C)ccc5c4c3)s2)no1` [Compound 199, (S)-3-methyl-2-(8-(5-(5-methyl-1,2,4-oxadiazol-3-yl)thiophen-2-yl)dibenzo[b,d]furan-3-sulfonamido)butanoic acid], the IC50 is reported as < 1.5 nM. Compound `CC(C)Cc1ncc(-c2ccc3c(c2)oc2ccc(S(=O)(=O)N[C@@H](C(=O)O)C(C)C)cc23)s1` [Compound 244, (R)-2-(7-(2-isobutylthiazol-5-yl)dibenzo[b,d]furan-2-sulfonamido)-3-methylbutanoic acid] has an IC50 of 3.4 nM. `COc1ccc(-c2ccc3oc4cc(S(=O)(=O)N[C@H](C(=O)O)C(C)C)ccc4c3c2)cc1` [Compound 310, (S)-2-(8-(4-methoxyphenyl)dibenzo[b,d]furan-3-sulfonamido)-3-methylbutanoic acid] was tested, and the IC50 was < 1.5 nM. Compound `CCCc1ccc(-c2ccc3c(c2)oc2ccc(S(=O)(=O)N[C@H](C(=O)O)C(C)C)cc23)s1` [Compound 246, (S)-3-methyl-2-(7-(5-propylthiophen-2-yl)dibenzo[b,d]furan-2-sulfonamido)butanoic acid] has an IC50 of 6.2 nM. With `CC(C)C[C@H](NS(=O)(=O)c1ccc2c(c1)oc1ccc(-c3noc(C(C)(C)C)n3)cc12)C(=O)O` [Compound 252, (S)-2-(8-(5-tert-butyl-1,2,4-oxadiazol-3-yl)dibenzo[b,d]furan-3-sulfonamido)-4-methylpentanoic acid] the IC50 was 12 nM. `CC(C)[C@H](NS(=O)(=O)c1ccc2c(c1)oc1ccc(-c3ncc(CN4CCN(C)CC4)s3)cc12)C(=O)O` [Compound 212, (S)-3-methyl-2-(8-(5-((4-methylpiperazin-1-yl)methyl)thiazol-2-yl)dibenzo[b,d]furan-3-sulfonamido)butanoic acid] was tested, and the IC50 was 86 nM. For `CC(C)[C@H](NS(=O)(=O)c1ccc2c(c1)oc1ccc(-c3cn[nH]c3)cc12)C(=O)O` [Compound 23, (S)-2-(8-(1H-pyrazol-4-yl)dibenzo[b,d]furan-3-sulfonamido)-3-methylbutanoic acid], the IC50 was < 1.5 nM. Work on `Cc1nnc(-c2ccc3c(c2)oc2ccc(S(=O)(=O)N[C@@H](C(=O)O)C(C)C)cc23)s1` [Compound 292, (R)-3-methyl-2-(7-(5-methyl-1,3,4-thiadiazol-2-yl)dibenzo[b,d]furan-2-sulfonamido)butanoic acid] yielded an IC50 of 43 nM. `CC(C)C[C@@H](NS(=O)(=O)c1ccc2c(c1)oc1ccc(-c3noc(C(C)(C)C)n3)cc12)C(=O)O` [Compound 253, (R)-2-(8-(5-tert-butyl-1,2,4-oxadiazol-3-yl)dibenzo[b,d]furan-3-sulfonamido)-4-methylpentanoic acid] showed an IC50 of 17 nM. In the case of `O=C(O)CNS(=O)(=O)c1ccc2c(c1)oc1ccc(-c3nccs3)cc12` [Compound 251, 2-(8-(thiazol-2-yl)dibenzo[b,d]furan-3-sulfonamido)acetic acid], the IC50 is reported as 17 nM. With `CC(C)[C@H](NS(=O)(=O)c1ccc2c(c1)oc1ccc(-c3ccccc3)cc12)C(=O)O` [Compound 309, (S)-3-methyl-2-(8-phenyldibenzo[b,d]furan-3-sulfonamido)butanoic acid] the IC50 was < 1.5 nM. Compound `COc1ncc(-c2ccc3c(c2)oc2ccc(S(=O)(=O)N[C@@H](C(=O)O)C(C)C)cc23)cn1` [Compound 168, (R)-2-(7-(2-methoxypyrimidin-5-yl)dibenzo[b,d]furan-2-sulfonamido)-3-methylbutanoic acid] has an IC50 of 1.5 nM. `CC(C)[C@@H](NS(=O)(=O)c1ccc2oc3cc(-c4cc5ccccc5o4)ccc3c2c1)C(=O)O` [Compound 119, (R)-2-(7-(benzofuran-2-yl)dibenzo[b,d]furan-2-sulfonamido)-3-methylbutanoic acid] was tested, and the IC50 was 8.3 nM. `CC(=O)c1ccc(-c2ccc3c(c2)oc2ccc(S(=O)(=O)N[C@@H](C(=O)O)C(C)C)cc23)s1` [Compound 105, (R)-2-(7-(5-acetylthiophen-2-yl)dibenzo[b,d]furan-2-sulfonamido)-3-methylbutanoic acid] showed an IC50 of 21.8 nM.
